# Results from patent US10183021B2, “sGC stimulators” (Ironwood Pharmaceuticals, Inc., priority 2013, dated 2019).
# Read-outs that look alike come from different tables or passages of the source.
# Tests used:
# Sprague-Dawley rats = assay: Blood pressure change in Sprague-Dawley rats (Example 4); assay type: in vivo, rat; settings: conscious male Sprague-Dawley rats, PO, 10 mg/kg
# Experimental: Male rats (250-350 g body weight, supplied by Harlan Laboratories) were anesthetized with ketamine/xylazine and a heparinized saline fluid filled catheter implanted into the right femoral artery. The catheter was exteriorized between the scapula, capped, and the animal allowed to recover for at least 7 days post surgery prior to any compound testing. Prior to testing animals were maintained on normal diet, with free access to drinking water, under a 12 hour light-dark cycle.
# On the day of experimentation, under inhaled isoflurane anesthesia, the catheter was uncapped and connected to a tether (Instech Labs) and pressure transducer (Harvard Apparatus). Blood pressure and heart rate were subsequently captured and analyzed with a dedicated data capture system (PowerLab, ADInstruments). Data sampling rates were set at 1 cycle per second. Once connected, each rat was allowed to recover from anesthesia and baseline blood pressure and heart rate levels were established in these conscious, freely-moving animals. Once baseline was established either vehicle (0.5% methylcellulose or 100% PEG400) or test article was administered orally (PO, 10 mg/kg) and the effects on blood pressure and heart rate monitored for up to 24 hours.
# Data are reported as hourly averages and changes in blood pressure are calculated from subtracting individual baseline on an hourly basis.
# [1] = biological target: T1, soluble guanylate cyclase (sGC) (Homo sapiens (Human), UniProt Q02108+Q02153); assay: sGC-HEK-cGMP assay with SNP incubation, LC/MS detection (Example 2A); assay type: cell-based
# Outline: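 HEK293 cells with endogenous sGC were pretreated 15 min at 37 °C with 0.5 mM IBMX, then exposed 10 min at 37 °C to compound (added from 0.0001–30 μM solutions) plus SNP (from 10 μM solution). After 0.1 M HCl lysis, cGMP was quantified by LC/MS against a standard curve.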
# [2] = biological target: T1, soluble guanylate cyclase (sGC); assay: sGC-HEK-cGMP assay, new protocol with DETA-NONOate, LC/MS detection (Example 2C); assay type: cell-based
# [3] = HEK293 cells, 10 μM SNP, LC/MS detection, 100% = BAY 41-2272 at 10 μM, read-out: HEK assay Emax - unconstrained (%)
# [4] = HEK293 cells, 10 μM SNP, LC/MS detection, top of curve not fitted to 100%, read-out: HEK assay EC50 - unconstrained
# [5] = read-out: Absolute EC50 (uM) - binned
# [6] = HEK293 cells, 10 μM SNP, LC/MS detection, top of curve fitted to 100%, read-out: HEK assay EC50 - constrained
# T1 sequence (Q02153 whole entry): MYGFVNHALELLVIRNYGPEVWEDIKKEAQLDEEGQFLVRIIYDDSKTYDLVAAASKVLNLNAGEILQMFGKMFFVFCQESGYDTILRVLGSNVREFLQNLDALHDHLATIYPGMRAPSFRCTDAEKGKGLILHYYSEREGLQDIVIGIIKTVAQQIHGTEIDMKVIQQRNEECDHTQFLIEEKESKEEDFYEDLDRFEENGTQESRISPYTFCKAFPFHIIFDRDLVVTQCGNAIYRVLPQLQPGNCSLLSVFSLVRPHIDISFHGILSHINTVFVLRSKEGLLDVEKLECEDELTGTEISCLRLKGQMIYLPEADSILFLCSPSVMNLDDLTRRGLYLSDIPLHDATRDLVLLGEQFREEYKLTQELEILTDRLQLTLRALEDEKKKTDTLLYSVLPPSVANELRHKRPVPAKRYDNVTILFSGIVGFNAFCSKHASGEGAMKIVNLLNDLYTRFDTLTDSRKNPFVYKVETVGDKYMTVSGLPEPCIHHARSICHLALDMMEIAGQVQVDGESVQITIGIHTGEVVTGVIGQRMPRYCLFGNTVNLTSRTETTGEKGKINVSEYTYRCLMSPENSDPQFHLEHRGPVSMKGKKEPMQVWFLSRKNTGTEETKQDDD
# T1 sequence (Q02108 whole entry): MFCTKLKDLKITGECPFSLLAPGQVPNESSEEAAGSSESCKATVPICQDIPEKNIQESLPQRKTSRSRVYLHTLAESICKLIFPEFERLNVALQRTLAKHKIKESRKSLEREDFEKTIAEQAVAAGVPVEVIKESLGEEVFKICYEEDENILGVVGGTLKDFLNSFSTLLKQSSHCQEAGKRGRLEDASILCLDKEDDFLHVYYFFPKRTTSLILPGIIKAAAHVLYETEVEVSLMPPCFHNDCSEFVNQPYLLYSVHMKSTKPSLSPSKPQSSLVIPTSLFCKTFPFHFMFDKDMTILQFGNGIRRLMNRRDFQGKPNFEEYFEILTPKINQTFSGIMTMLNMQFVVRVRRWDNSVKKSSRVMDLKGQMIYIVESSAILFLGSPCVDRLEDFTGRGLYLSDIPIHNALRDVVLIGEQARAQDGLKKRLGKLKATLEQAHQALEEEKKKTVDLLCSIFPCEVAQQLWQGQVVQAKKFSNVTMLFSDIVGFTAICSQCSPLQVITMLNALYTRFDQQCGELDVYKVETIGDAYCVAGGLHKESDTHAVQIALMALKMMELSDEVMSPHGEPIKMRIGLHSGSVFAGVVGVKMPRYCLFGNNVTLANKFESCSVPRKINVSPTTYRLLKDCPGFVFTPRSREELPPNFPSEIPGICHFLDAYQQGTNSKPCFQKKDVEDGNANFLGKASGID
SMILES,"Emax [1, 3] [%]","EC50 [1, 4] [nM]","EC50 [2, 5] [µM]",also measured
C[C@H]1CCCN(c2nc(-c3cc(-c4ccon4)n(Cc4ccccc4F)n3)ncc2F)[C@H]1C(=O)O (racemic) [Compound I-161],–,–,–,Rat Mean Arterial Pressure peak change from baseline at 10 mpk (Sprague-Dawley rats): B (B = −20 ≤ peak change from baseline at 10 mpk ≤ −10)
O=C(O)[C@H]1c2ccccc2CCN1c1nc(-c2cc(-c3ccon3)n(Cc3ccccc3F)n2)ncc1F [Compound I-121],60 to 80,100 to 500,–,Rat Mean Arterial Pressure peak change from baseline at 10 mpk (Sprague-Dawley rats): A (A = −10 < peak change from baseline at 10 mpk < 0)
CC1(C(=O)O)CCN(c2nc(-c3cc(-c4ccon4)n(Cc4ccccc4F)n3)ncc2F)CC1 [Compound I-124],60 to 80,1 to 100,–,Rat Mean Arterial Pressure peak change from baseline at 10 mpk (Sprague-Dawley rats): B (B = −20 ≤ peak change from baseline at 10 mpk ≤ −10)
CN(c1nc(-c2cc(-c3ccon3)n(Cc3ccccc3F)n2)ncc1F)C(C(=O)O)c1ccccc1 (stereo not drawn) [Compound I-142],80 to 100,1 to 100,–,Rat Mean Arterial Pressure peak change from baseline at 10 mpk (Sprague-Dawley rats): A (A = −10 < peak change from baseline at 10 mpk < 0)
CC1(C(=O)O)CCN(c2nc(-c3cc(-c4ccon4)n(Cc4ccccc4F)n3)ncc2F)C1 (stereo not drawn) [Compound I-143],80 to 100,100 to 500,–,Rat Mean Arterial Pressure peak change from baseline at 10 mpk (Sprague-Dawley rats): B (B = −20 ≤ peak change from baseline at 10 mpk ≤ −10)
O=C(O)C1(C(F)(F)F)CCN(c2nc(-c3cc(-c4ccon4)n(Cc4ccccc4F)n3)ncc2F)C1 (stereo not drawn) [Compound I-185],100 to 120,1000 to 5000,–,Rat Mean Arterial Pressure peak change from baseline at 10 mpk (Sprague-Dawley rats): A (A = −10 < peak change from baseline at 10 mpk < 0)
CCOC(=O)CN1CCCN1c1nc(-c2cc(-c3ccon3)n(Cc3ccccc3F)n2)ncc1F [Compound I-213],> 120,500 to 1000,< 0.1,–
O=C(O)CCCNc1nc(-c2cc(-c3ccon3)n(Cc3ccccc3F)n2)ncc1F [Compound I-214],> 120,100 to 500,< 0.1,–
CC(C)[C@H](C(=O)O)N(C)c1nc(-c2cc(-c3ccon3)n(Cc3ccccc3F)n2)ncc1F [Compound I-219],20 to 40,> 10000,< 0.1,–
O=C(O)CC1CCN(c2nc(-c3cc(-c4ccon4)n(Cc4ccccc4F)n3)ncc2F)CC1 [Compound I-230],40 to 60,> 10000,< 0.1,–
CC(C)[C@@H](C(=O)O)N(C)c1nc(-c2cc(-c3ncco3)n(Cc3ccccc3F)n2)ncc1F [Compound I-236],100 to 120,100 to 500,< 0.1,–
CN(c1nc(-c2cc(-c3ccon3)n(Cc3ccccc3F)n2)ncc1F)[C@H](C(=O)O)C1CC1 [Compound I-239],60 to 80,1 to 100,< 0.1,–
O=C(O)CC1(Nc2nc(-c3cc(-c4ccon4)n(Cc4ccccc4F)n3)ncc2F)CCOCC1 [Compound I-245],–,–,0.101 to 1,"EC50 [1, 6]: 100 to 500 nM"
CN(CC1(C(=O)O)CC1)c1nc(-c2cc(-c3ccon3)n(Cc3ccccc3F)n2)ncc1F [Compound I-250],80 to 100,1 to 100,< 0.1,–
CN(c1nc(-c2cc(-c3ccon3)n(Cc3ccccc3F)n2)ncc1F)[C@@H](Cc1ccccn1)C(=O)O [Compound I-257],–,–,> 1,"EC50 [1, 6]: > 10000 nM"
CC(C)[C@H](Nc1nc(-c2cc(-c3ccon3)n(Cc3ccccc3F)n2)ncc1F)C(=O)NS(=O)(=O)C1CC1 [Compound I-258],100 to 120,1000 to 5000,0.101 to 1,–
O=C(O)C1(O)CCN(c2nc(-c3cc(-c4ccon4)n(Cc4ccccc4F)n3)ncc2F)CC1 [Compound I-300],60 to 80,500 to 1000,0.101 to 1,–
C[C@H]1CCCN(c2nc(-c3cc(-c4ccon4)n(Cc4cccc(F)c4F)n3)ncc2F)[C@H]1C(=O)O [Compound I-305],0 to 10,> 10000,< 0.1,–

SMILES,"Emax [1, 3] [%]","EC50 [1, 4] [nM]","EC50 [2, 5] [µM]",also measured
CN(c1nc(-c2cc(-c3ccon3)n(Cc3ccccc3F)n2)ncc1F)C12CC(C(=O)O)(C1)C2 [Compound I-307],100 to 120,1000 to 5000,0.101 to 1,–
OC[C@@H](O)CNc1nc(-c2cc(-c3ccon3)n(Cc3ccccc3F)n2)ncc1F [Compound I-313],–,–,< 0.1,Rat Mean Arterial Pressure peak change from baseline at 10 mpk (Sprague-Dawley rats): C (C = peak change from baseline at 10 mpk < −20)
C[C@H]1CCCN(c2nc(-c3cc(-c4ccon4)n(Cc4ccccc4F)n3)ncc2F)[C@H]1C(=O)O [Compound I-329],–,–,–,Rat Mean Arterial Pressure peak change from baseline at 10 mpk (Sprague-Dawley rats): B (B = −20 ≤ peak change from baseline at 10 mpk ≤ −10)
C[C@@H]1CCCN(c2nc(-c3cc(-c4ccon4)n(Cc4ccccc4F)n3)ncc2F)[C@@H]1C(=O)O [Compound I-330],–,–,–,Rat Mean Arterial Pressure peak change from baseline at 10 mpk (Sprague-Dawley rats): C (C = peak change from baseline at 10 mpk < −20)
CN(CC(=O)NS(=O)(=O)c1ccccc1)c1nc(-c2cc(-c3ccon3)n(Cc3ccccc3F)n2)ncc1F [Compound I-361],0 to 10,100 to 500,< 0.1,–
Oc1noc2c1CCN(c1nc(-c3cc(-c4ccon4)n(Cc4ccccc4F)n3)ncc1F)C2 [Compound I-364],–,–,–,"EC50 [1]: 1 to 100 nM; Emax ([1]; HEK293, read-out: HEK assay Emax - unconstrained (%)): 80 to 100%; EC50 [2]: < 0.1 µM"
O=C(O)[C@@H]1[C@H]2CC[C@H](C2)N1c1nc(-c2cc(-c3ccon3)n(Cc3ccccc3F)n2)ncc1F [Compound I-365],80 to 100,1000 to 5000,0.101 to 1,–
NS(=O)(=O)C1CCN(c2nc(-c3cc(-c4ccon4)n(Cc4ccccc4F)n3)ncc2F)CC1 [Compound I-366],40 to 60,1 to 100,< 0.1,–
CNS(=O)(=O)CCNc1nc(-c2cc(-c3ccon3)n(Cc3ccccc3F)n2)ncc1F [Compound I-367],60 to 80,1 to 100,< 0.1,–
CN(CCS(=O)(=O)O)c1nc(-c2cc(-c3ccon3)n(Cc3ccccc3F)n2)ncc1F [Compound I-368],20 to 40,100 to 500,> 1,–
O=C(O)[C@@H]1CCc2ccccc2[C@@H]1Nc1nc(-c2cc(-c3ccon3)n(Cc3ccccc3F)n2)ncc1F [Compound I-369],60 to 80,1 to 100,< 0.1,–
O=C(O)[C@@H]1Cc2ccccc2[C@@H]1Nc1nc(-c2cc(-c3ccon3)n(Cc3ccccc3F)n2)ncc1F [Compound I-371],10 to 20,> 10000,< 0.1,–
CCOC(=O)c1csc(CN(C)c2nc(-c3cc(-c4ccon4)n(Cc4ccccc4F)n3)ncc2F)n1 [Compound I-372],60 to 80,100 to 500,0.101 to 1,–
CN(CCS(N)(=O)=O)c1nc(-c2cc(-c3ccon3)n(Cc3ccccc3F)n2)ncc1F [Compound I-374],100 to 120,100 to 500,< 0.1,–
CN(Cc1nc(C(=O)O)co1)c1nc(-c2cc(-c3ccon3)n(Cc3ccccc3F)n2)ncc1F [Compound I-375],100 to 120,100 to 500,> 1,–
CN(Cc1nc(C(=O)O)cn1C)c1nc(-c2cc(-c3ccon3)n(Cc3ccccc3F)n2)ncc1F [Compound I-376],100 to 120,5000 to 10000,> 1,–
O=C(O)[C@H]1[C@@H](C(F)(F)F)CCCN1c1nc(-c2cc(-c3ccon3)n(Cc3ccccc3F)n2)ncc1F [Compound I-454],20 to 40,> 10000,< 0.1,–
CC[C@H]1CCCN(c2nc(-c3cc(-c4ccon4)n(Cc4ccccc4F)n3)ncc2F)[C@H]1C(=O)O [Compound I-455],80 to 100,1 to 100,< 0.1,–
